Earlier results in the PKSmart pharmacokinetics tables (Seal et al. 2025).

Test: Lombardo, Berellini, Obach 2018, Drug Metab Dispos 46:1466, doi 10.1124/dmd.118.082966
Details: human; for MRT / Vd / clearance / half-life: in vivo, iv; for fraction unbound: plasma

Compound | MRT [h] | Vd [L/kg] | clearance [mL/min/kg] | half-life [h] | fraction unbound
Cc1c(O)ccc2c1OC[C@@H](c1ccc(O)cc1)[C@H]2c1ccc(O)cc1 | 2.38 | 1.2 | 8.42 | 5.3 | –
NC[C@H]1O[C@H](O[C@H]2[C@H](O[C@@H]3O[C@H](CO)[C@@H](O)[C@H]3O)[C@@H](O)[C@H](N)C[C@@H]2N)[C@H](N)[C@@H](O)[C@@H]1O | 2.8 | 0.25 | 1.5 | 2.5 | –
COCOCC(CCC1(C(=O)NC2CCC(C(=O)O)CC2)CCCC1)C(=O)O (configuration not stated) | 1.81 | 0.25 | 2.3 | 16 | 0.872
CN[C@@H]1[C@@H](O)[C@@H](O[C@@H]2[C@@H](O)[C@H](O[C@H]3O[C@H](CN)[C@@H](O)[C@H](O)[C@H]3O)[C@@H](N)C[C@H]2NC(=O)C(O)CN)OC[C@]1(C)O (some centres not stated) | 4.1 | – | 1.3 | 24 | 0.95
C[C@@H]1C[C@@H]2[C@@H]3CC=C4CC(=O)C=C[C@]4(C)C3=CC[C@]2(C)C1C(=O)CN1CCN(c2cc(N3CCCC3)nc(N3CCCC3)n2)CC1 (some centres not stated) | 23.2 | 9.8 | 7 | 49.3 | 0.006
CCN(CC)CCCC(C)Nc1c2ccc(Cl)cc2nc2ccc(OC)cc12 (configuration not stated) | 150 | 45 | 5.1 | 120 | –
Cc1c(-c2ccc(O)cc2)n(Cc2ccc(OCCN3CCCCCC3)cc2)c2ccc(O)cc12 | – | – | – | – | 0.02
CC(C)(N)CC(=O)NC1CCc2ccccc2N(Cc2ccc(-c3ccccc3-c3nnn[nH]3)cc2)C1=O (configuration not stated) | 1.1 | 0.2 | 3.05 | 3.8 | 0.06
NCCCCC(NC1CCc2ccccc2N(CC(=O)O)C1=O)C(=O)O (configuration not stated) | 29.3 | 1.98 | 1.23 | – | –
O=C(NCCN1CCOCC1)Nc1nc2ccc(Sc3nnc4ccc(-c5ccc(F)cc5)nn34)cc2s1 | 8.19 | 4.1 | 8.34 | 19.4 | –
CC(=O)OCC1=C(C(=O)O)N2C(=O)C(NC(=O)CSc3ccncc3)[C@H]2SC1 (some centres not stated) | 0.8 | 0.13 | 2.7 | 1.2 | 0.55
CC(=O)N[C@H]1[C@H]([C@H](O)[C@H](O)CO)OC(C(=O)O)=C[C@@H]1NC(=N)N | 2.4 | 0.23 | 1.6 | 1.7 | –
CON=C(C(=O)NC1C(=O)N2C(C(=O)O)=C(CSc3nc(=O)c(O)nn3C)CS[C@H]12)c1csc(N)n1 (some centres not stated) | 9.6 | 0.12 | 0.22 | 7.6 | 0.1
CNCCC=C1c2ccccc2CCc2ccccc21 | 37 | 22 | 10 | 30 | –
C=C(C)[C@@H]1CCC(C)=C[C@H]1c1c(O)cc(CCCCC)cc1O | 8.23 | 6.69 | 13.6 | 23.8 | –
Cc1ccccc1C(=O)Nc1ccc(C(=O)N2CCC[C@H](O)c3cc(Cl)ccc32)c(C)c1 | 3.5 | 0.5 | 2.4 | 2.9 | 0.01
O=C(O)CSc1nnc(Br)n1-c1ccc(C2CC2)c2ccccc12 | 3.33 | 0.29 | 1.43 | 5 | 0.02
CC(C)(C)S(=O)(=O)CC(Cc1ccccc1)C(=O)NC(Cc1c[nH]cn1)C(=O)N[C@@H](CC1CCCCC1)[C@@H](O)C(O)C1CC1 (some centres not stated) | 1.1 | 0.77 | 11.6 | 5.2 | 0.0558
Cc1ccc(-c2ncc(Cl)cc2-c2ccc(S(C)(=O)=O)cc2)cn1 | 32 | 1.5 | 0.79 | 26 | 0.081
Cc1cnc(C(=O)NCCc2ccc(S(=O)(=O)NC(=O)NC3CCCCC3)cc2)cn1 | 4.8 | – | – | – | –
CCOC(=O)[C@]1(c2ccccc2)CCC=C[C@H]1NC | 4.2 | 2.5 | 9.9 | 4.4 | –
COc1ccc(-c2nc3cc(C4=NNC(=O)CC4C)ccc3[nH]2)cc1 (configuration not stated) | 2.2 | 2 | – | 1.8 | 0.024
O=C(NC1CC[C@@H](c2cccc(F)c2F)CN(CC(F)(F)F)C1=O)N1CCC(n2c(=O)[nH]c3ncccc32)CC1 (some centres not stated) | 2.5 | 0.86 | 5.8 | 8.2 | –
COc1c2occc2cc2ccc(=O)oc12 | 0.88 | 0.61 | – | – | 0.09

Compound | MRT [h] | Vd [L/kg] | clearance [mL/min/kg] | half-life [h] | fraction unbound
O=C1N=C(c2ccccc2Cl)c2cc(Cl)ccc2NC1O (configuration not stated) | 22 | 1.3 | 1 | 17 | –
O=C(O)C[C@@H]1CC[C@H](NC(=O)Cc2cccs2)B(O)O1 | 1.64 | 0.29 | 2.94 | 1.34 | 0.67
CSCCC(N)C(=O)N[C@@]1(C(=O)O)CS(=O)(=O)[C@H]2C(C(=O)O)[C@H]21 (some centres not stated) | 0.75 | 0.44 | 9.73 | 0.84 | –
CC(C)=CCN1Cc2cc(Cl)cc3[nH]c(=S)n(c23)C[C@@H]1C | 35.2 | 22 | 10.4 | 26 | –
COc1c(OCCCN2CCOCC2)ccc2c1N=C(NC(=O)c1cnc(N)nc1)N1CCN=C21 | 26.8 | 10.3 | 6.42 | 25.2 | –
CCCCc1nc(Cl)c(CO)n1Cc1ccc(-c2ccccc2-c2nnn[nH]2)cc1 | 0.75 | 0.37 | 8.2 | 1.8 | –
CCCc1c2oc(C(=O)O)cc(=O)c2cc2c(=O)cc(C(=O)O)n(CC)c12 | 0.7 | 0.43 | 10.2 | 0.9 | 0.11
COc1ccc(CCN(C)CCC[C@](C#N)(c2cc(OC)c(OC)c(OC)c2)C(C)C)cc1OC | 2.04 | 1.75 | 14.3 | 1.8 | 0.07
CO[C@]1(NC(=O)CSC(F)F)C(=O)N2C(C(=O)O)=C(CSc3nnnn3CCO)CO[C@@H]21 | 0.77 | 0.19 | – | 0.6 | 0.64
CSCCC(N)C(=O)NC(CCC(=O)O)C(=O)NC(Cc1cnc[nH]1)C(=O)NC(Cc1ccccc1)C(=O)NC(CCCN=C(N)N)C(=O)NC(Cc1c[nH]c2ccccc12)C(=O)NCC(=O)O (configuration not stated) | 0.01 | 0.73 | 871 | 0.06 | –
CCC(C)n1ncn(-c2ccc(N3CCN(c4ccc(OCC5COC(Cn6cncn6)(c6ccc(Cl)cc6Cl)O5)cc4)CC3)cc2)c1=O (configuration not stated) | – | 7.4 | 5.1 | 25 | –
CN(C)[C@@H]1C(O)=C(C(N)=O)C(=O)[C@@]2(O)C(O)=C3C(=O)c4c(O)cccc4[C@@](C)(O)[C@H]3[C@H](O)[C@@H]12 | 12 | 1.7 | 2 | 10 | 0.9
C=C[C@@H]1C[C@]1(NC(=O)C1C[C@@H](Oc2ncc(OC)c3ccc(Cl)cc23)CN1C(=O)C(NC(=O)OC(C)(C)C)C(C)(C)C)C(=O)NS(=O)(=O)C1CC1 (some centres not stated) | 3.92 | 2.77 | 11.8 | 20 | 0.012
COc1ccccc1OC[C@H](O)CN1CCN(CC(=O)Nc2c(C)cccc2C)CC1 | 2.1 | 1.2 | 9.5 | 1.8 | 0.38
Cc1cc(NC(=O)C2C(=O)c3ccccc3S(=O)(=O)N2C)no1 (configuration not stated) | 44 | 0.19 | 0.07 | 33 | –
Clc1cccc(N2CCNCC2)c1 | 7 | 2.5 | 6.1 | 4.7 | –
CON=C(C(=O)NC1C(=O)N2C(C(=O)O)=C(CSc3cnns3)CS[C@H]12)c1csc(N)n1 (some centres not stated) | 0.82 | 0.2 | 4.1 | 1.14 | 0.12
CCc1cc2c(cc1CC)CC(NC[C@H](O)c1ccc(O)c3[nH]c(=O)ccc13)C2 | 72.4 | 19.4 | 4.48 | 92.5 | –
C[C@]12CCC(=O)C=C1CC[C@@H]1[C@@H]2[C@@H](O)C[C@@]2(C)[C@H]1CC[C@]2(O)C(=O)CO | 1.9 | 0.38 | 5.7 | 1.6 | –
CCN(C)C(=O)Oc1cccc([C@H](C)N(C)C)c1 | 1.9 | 1.3 | 12 | 1.4 | 0.6
CN1C[C@@H]2c3ccccc3Oc3ccc(Cl)cc3[C@H]2C1 | 30.9 | 23 | 12.4 | – | –
NS(=O)(=O)c1cc(C(=O)O)cc(N2CCCC2)c1Oc1ccccc1 | 0.91 | 0.17 | 3.1 | 1.3 | 0.058
CC(=O)Nc1cccc(-n2c(=O)n(C3CC3)c(=O)c3c(Nc4ccc(I)cc4F)n(C)c(=O)c(C)c32)c1 | 304 | 13.9 | 0.8 | 229 | –
C[C@H]1CN(c2c(F)cc3c(=O)c(C(=O)O)cn(C4CC4)c3c2OC(F)F)CCN1 | 7.1 | 1.1 | 2.7 | 5.9 | –

Compound | MRT [h] | Vd [L/kg] | clearance [mL/min/kg] | half-life [h] | fraction unbound
Nc1cc(OCC2CC2)c(C(=O)NC2CN3CCC2CC3)cc1Cl (configuration not stated) | 12.3 | 3.9 | 5.2 | 13.5 | –
CC(N)CCCC(C)(C)O (configuration not stated) | 3.24 | 2.14 | 10.7 | 2.5 | –
CCC1=C(C)CN(C(=O)NCCc2ccc(S(=O)(=O)NC(=O)N[C@H]3CC[C@H](C)CC3)cc2)C1=O | – | 0.19 | 0.5 | 10 | –
CCCCc1oc2ccc(NS(C)(=O)=O)cc2c1C(=O)c1ccc(OCCCN(CCCC)CCCC)cc1 | 10 | 20 | 33.3 | 16 | 0.02
COC(=O)C1(OC(=O)c2cncn2[C@H](C)c2ccccc2)CC1 | – | – | 50.1 | 0.24 | –
COC[C@@H](O)CN(C(C)=O)c1c(I)c(C(=O)NC[C@H](O)CO)c(I)c(C(=O)NC[C@H](O)CO)c1I | 2.64 | 0.2 | 1.27 | 2.04 | 1
O=C(O)c1cc(N=Nc2ccc(O)c(C(=O)O)c2)ccc1O | 0.97 | 0.07 | 1.2 | 0.9 | 0.01
NS(=O)(=O)c1ccc(S(=O)(=O)Nc2cccc3c(Cl)c[nH]c23)cc1 | 16.9 | 0.68 | 0.72 | 20.3 | 0.001
C[C@@H]1CCN(C(=O)CC#N)C[C@@H]1N(C)c1ncnc2[nH]ccc12 | 3.5 | 1.24 | 5.88 | – | 0.6
Cc1c(CN(C)C(=O)C=Cc2cnc3c(c2)CCC(=O)N3)oc2ccccc12 | 8.4 | 0.43 | 0.9 | 6.4 | –
NCCC(O)C(=O)N[C@@H]1C[C@H](N)[C@@H](O[C@H]2O[C@H](CN)CC[C@H]2N)[C@H](O)[C@H]1O[C@H]1O[C@H](CO)[C@@H](O)[C@H](N)[C@H]1O (some centres not stated) | 2.73 | 0.21 | 1.28 | 2.46 | –
O=C1OC2(c3ccc(O)cc3Oc3cc(O)ccc32)c2ccccc21 | 1.8 | 0.14 | 1.3 | 1.6 | 0.11
C[C@@]12CCCCC[C@@H](Cc3ccc(O)cc31)[C@@H]2N | 4.6 | 5.6 | 27.5 | 3.9 | 0.08
C=Cc1c(C)c2[nH]c1=Cc1[nH]c(c(=CCC(=O)OC)c1C)=Cc1[nH]c(c(C)c1CCC(=O)O)C=C1NC(=C3C=CC(C(=O)OC)=C(C(=O)OC)[C@@]13C)C=2 | 4.9 | 0.51 | 1.73 | 6.06 | –
COc1cc2c(cc1OC)[C@H]1C[C@@H](OC(=O)C(N)C(C)C)[C@H](CC(C)C)CN1CC2 (some centres not stated) | 12.8 | 1.31 | 1.71 | 18 | 0.01
Oc1cc2c(cc1O)[C@H](Cc1cccc3ccccc13)NCC2 | 0.12 | 1.09 | 156 | 1.58 | –
N=C(N)c1ccc(CNC(=O)C2CCN2C(=O)C(NCC(=O)O)C2CCCCC2)cc1 (configuration not stated) | 2 | 0.23 | 1.9 | 1.6 | –
O=C(O)CCCCN(CCc1ccccc1OCc1ccc(CCc2ccccc2)cc1)Cc1ccc(C(=O)O)cc1 | 0.44 | 0.24 | 9 | 0.25 | –
CCn1cc(C(=O)O)c(=O)c2cc(F)c(N3CCN[C@@H](C)C3)c(F)c21 | 7.89 | 2.04 | 3.98 | 8.1 | –
COc1cc([S+](C)O)ccc1-c1nc2ncccc2[n-]1 (configuration not stated) | 1 | 0.62 | 10 | 0.8 | 0.41
Nc1nc(OCc2cc(Br)cs2)c2[nH]cnc2n1 | – | – | 21.6 | 2.92 | –
O=C1NC(=O)C(c2ccccc2)(c2ccccc2)N1 | 17.6 | 0.43 | 0.37 | 16.8 | 0.13
